In patent US20250032524A1, “BROAD SPECTRUM AMINOGLYCOSIDES AND USES THEREOF” (REVAGENIX, INC., priority 2022, published 2025):

Legend:
[1] = tested on: A. baumannii strain CDC-313; assay: Neutropenic mouse lung infection model; assay type: in vivo; conditions: neutropenic CD-1 male mice, FIG. 15
S. enterica = assay: MIC broth microdilution (CLSI); assay type: cell-based; conditions: strain ASSE1001, MDR Clinical isolate (CDC CRE panel), CDC AR Bank 0127
Description: (§1) Minimum inhibitory concentrations for representative example compounds herein were determined by a broth microdilution method in accordance with the Clinical and Laboratory Standards Institute (CLSI) guidelines. In brief, organism suspensions were adjusted to a 0.5 McFarland standard to yield a final inoculum between 3×10^5 and 7×10^5 colony-forming units (CFU)/mL. The inoculum was prepared by suspension of a colony from an agar plate that was prepared the previous day. Compound dilutions and inoculum were prepared in sterile, cation adjusted Mueller-Hinton Broth (Beckton Dickinson).
(§2) Bacteria were suspended in sterile saline and added to each assay plate to obtain a final concentration of 5×10^5 CFU/mL. An inoculum volume of 100 μL was added to wells containing 100 μL of broth with 2-fold serial dilutions of the test compound. All inoculated microdilution trays were incubated in ambient air at 35° C. for 18-24 hours. Following incubation, the lowest concentration of the compound that prevented visible growth (OD 600 nm<0.05) is recorded was the MIC. […] Performance of the assay was monitored by the use of laboratory quality-control strains and a standard compound with a defined MIC spectrum (neomycin), in accordance with CLSI guidelines.

C. freundii = assay: MIC broth microdilution (CLSI); assay type: cell-based; conditions: strain ACSP1001, MDR Clinical isolate (CDC CRE panel), CDC AR Bank 0157
Description: as §1, §2

S. aureus = assay: MIC broth microdilution (CLSI); assay type: cell-based
Description: as §1, §2

E. coli = assay: MIC broth microdilution (CLSI); assay type: cell-based
Description: as §1, §2

A. baumannii = assay: MIC broth microdilution (CLSI); assay type: cell-based
Description: as §1, §2

K. pneumoniae = assay: MIC broth microdilution (CLSI); assay type: cell-based
Description: as §1, §2

K. aerogenes = assay: MIC broth microdilution (CLSI); assay type: cell-based; conditions: strain AEAE1042, MDR Clinical isolate (CDC CRE panel), CDC AR Bank 0161
Description: as §1, §2

P. aeruginosa = assay: MIC broth microdilution (CLSI); assay type: cell-based
Description: as §1, §2

E. cloacae = assay: MIC broth microdilution (CLSI); assay type: cell-based; conditions: strain AECL1089, MDR Clinical isolate (CDC CRE panel), CDC AR Bank 0154
Description: as §1, §2

P. mirabilis = assay: MIC broth microdilution (CLSI); assay type: cell-based; conditions: strain APMI1048, MDR Clinical isolate (CDC CRE panel), CDC AR Bank 0159
Description: as §1, §2

## NCC[C@H](O)C(=O)N[C@@H]1C[C@H](N)[C@@H](O[C@H]2O[C@H](CN)[C@@H](O)[C@H](O)[C@H]2O)[C@H](O)[C@H]1O[C@H]1O[C@H](CO)[C@@H](O)[C@H](N)[C@H]1O [amikacin]
[1]
  in vivo antibacterial activity against the strain: minimal activity

## NC[C@@H]1O[C@H](O[C@H]2[C@@H](O)[C@H](O[C@@H]3[C@@H](O)[C@H](N)C[C@H](N)[C@H]3O[C@H]3O[C@H](CN)[C@@H](O)[C@H](O)[C@H]3N)O[C@@H]2CO)[C@H](N)[C@@H](O)[C@@H]1O [NEO, neomycin, reference compound]
S. enterica
  Activity (MIC): + (MIC threshold for positive activity (+) is ≤16 μg/mL)
C. freundii
  Activity (MIC): − (for inactive (−) is >16 μg/mL)
S. aureus; strain NSAU001, wild-type, QC, ATCC 29213
  Activity (MIC): + (MIC threshold for positive activity (+) is ≤16 μg/mL)
S. aureus; strain NSAU1004, MDR Clinical isolate
  Activity (MIC): + (MIC threshold for positive activity (+) is ≤16 μg/mL)
S. aureus; strain NSAU1015, MDR Clinical isolate
  Activity (MIC): + (MIC threshold for positive activity (+) is ≤16 μg/mL)
S. aureus; strain NSAU1023, MDR Clinical isolate
  Activity (MIC): − (for inactive (−) is >16 μg/mL)
S. aureus; strain NSAU1063, MDR Clinical isolate
  Activity (MIC): − (for inactive (−) is >16 μg/mL)
E. coli; strain AECO1225, MDR Clinical isolate (CDC CRE panel), CDC AR Bank 0118
  Activity (MIC): + (MIC threshold for positive activity (+) is ≤16 μg/mL)
E. coli; strain AECO1226, MDR Clinical isolate (CDC CRE panel), CDC AR Bank 0119
  Activity (MIC): + (MIC threshold for positive activity (+) is ≤16 μg/mL)
E. coli; strain AECO1227, MDR Clinical isolate (CDC CRE panel), CDC AR Bank 0128
  Activity (MIC): + (MIC threshold for positive activity (+) is ≤16 μg/mL)
E. coli; strain NECO0001, WT QC
  Activity (MIC): + (MIC threshold for positive activity (+) is ≤16 μg/mL)
E. coli; strain NECO0002, WT
  Activity (MIC): + (MIC threshold for positive activity (+) is ≤16 μg/mL)
E. coli; strain NECO0003, ΔtolC
  Activity (MIC): + (MIC threshold for positive activity (+) is ≤16 μg/mL)
E. coli; strain NECO0243, empty vector
  Activity (MIC): + (MIC threshold for positive activity (+) is ≤16 μg/mL)
E. coli; strain NECO0244, AAC(6')-Ib
  Activity (MIC): + (MIC threshold for positive activity (+) is ≤16 μg/mL)
E. coli; strain NECO0245, ArmA
  Activity (MIC): + (MIC threshold for positive activity (+) is ≤16 μg/mL)
E. coli; strain NECO0289, APH(3')-Ia
  Activity (MIC): − (for inactive (−) is >16 μg/mL)
E. coli; strain NECO0302, AAC(3)-IIa
  Activity (MIC): + (MIC threshold for positive activity (+) is ≤16 μg/mL)
E. coli; strain NECO0350, AAC(2')-I
  Activity (MIC): + (MIC threshold for positive activity (+) is ≤16 μg/mL)
E. coli; strain NECO0359, ANT(4')-Ia
  Activity (MIC): + (MIC threshold for positive activity (+) is ≤16 μg/mL)
A. baumannii; strain NABA0006, WT parent
  Activity (MIC): + (MIC threshold for positive activity (+) is ≤16 μg/mL)
A. baumannii; strain NABA0007, ΔadeJK efflux
  Activity (MIC): + (MIC threshold for positive activity (+) is ≤16 μg/mL)
A. baumannii; strain NABA0020, AME negative strain
  Activity (MIC): + (MIC threshold for positive activity (+) is ≤16 μg/mL)
A. baumannii; strain NABA1427, MDR Clinical isolate
  Activity (MIC): − (for inactive (−) is >16 μg/mL)
A. baumannii; strain NABA1433, MDR Clinical isolate
  Activity (MIC): − (for inactive (−) is >16 μg/mL)
A. baumannii; strain NABA1434, MDR Clinical isolate
  Activity (MIC): + (MIC threshold for positive activity (+) is ≤16 μg/mL)
A. baumannii; strain NABA1436, MDR Clinical isolate
  Activity (MIC): − (for inactive (−) is >16 μg/mL)
A. baumannii; strain NABA1437, MDR Clinical isolate
  Activity (MIC): + (MIC threshold for positive activity (+) is ≤16 μg/mL)
A. baumannii; strain NABA1438, MDR Clinical isolate
  Activity (MIC): − (for inactive (−) is >16 μg/mL)
A. baumannii; strain NABA1439, MDR Clinical isolate
  Activity (MIC): − (for inactive (−) is >16 μg/mL)
A. baumannii; strain NABA1448, MDR Clinical isolate
  Activity (MIC): − (for inactive (−) is >16 μg/mL)
A. baumannii; strain NABA1449, MDR Clinical isolate
  Activity (MIC): + (MIC threshold for positive activity (+) is ≤16 μg/mL)
A. baumannii; strain NABA1450, MDR Clinical isolate
  Activity (MIC): − (for inactive (−) is >16 μg/mL)
K. pneumoniae; strain AKPN1246, MDR Clinical isolate (CDC CRE panel), CDC AR Bank 0139
  Activity (MIC): + (MIC threshold for positive activity (+) is ≤16 μg/mL)
K. pneumoniae; strain AKPN1250, MDR Clinical isolate (CDC CRE panel), CDC AR Bank 0143
  Activity (MIC): + (MIC threshold for positive activity (+) is ≤16 μg/mL)
K. pneumoniae; strain AKPN1253, MDR Clinical isolate (CDC CRE panel), CDC AR Bank 0148
  Activity (MIC): + (MIC threshold for positive activity (+) is ≤16 μg/mL)
K. pneumoniae; strain AKPN1255, MDR Clinical isolate (CDC CRE panel), CDC AR Bank 0153
  Activity (MIC): + (MIC threshold for positive activity (+) is ≤16 μg/mL)
K. aerogenes
  Activity (MIC): + (MIC threshold for positive activity (+) is ≤16 μg/mL)
P. aeruginosa; strain NPAE0001, WT Aph(3')-IIb, QC
  Activity (MIC): − (for inactive (−) is >16 μg/mL)
P. aeruginosa; strain NPAE0002, WT Aph(3')-IIb
  Activity (MIC): + (MIC threshold for positive activity (+) is ≤16 μg/mL)
P. aeruginosa; strain NPAE0006, Efflux KO, Aph(3')-IIb
  Activity (MIC): + (MIC threshold for positive activity (+) is ≤16 μg/mL)
P. aeruginosa; strain NPAE0010, MexXY over-expressed, Aph(3')-IIb
  Activity (MIC): − (for inactive (−) is >16 μg/mL)
P. aeruginosa; strain NPAE0359, aph(3')-IIb KO (tetR)
  Activity (MIC): − (for inactive (−) is >16 μg/mL)
P. aeruginosa; strain NPAE1288, MDR Clinical isolate
  Activity (MIC): − (for inactive (−) is >16 μg/mL)
P. aeruginosa; strain NPAE1293, MDR Clinical isolate
  Activity (MIC): − (for inactive (−) is >16 μg/mL)
P. aeruginosa; strain NPAE1299, MDR Clinical isolate
  Activity (MIC): − (for inactive (−) is >16 μg/mL)
P. aeruginosa; strain NPAE1302, MDR Clinical isolate
  Activity (MIC): − (for inactive (−) is >16 μg/mL)
P. aeruginosa; strain NPAE1303, MDR Clinical isolate
  Activity (MIC): − (for inactive (−) is >16 μg/mL)
P. aeruginosa; strain NPAE1308, MDR Clinical isolate
  Activity (MIC): − (for inactive (−) is >16 μg/mL)
P. aeruginosa; strain NPAE1310, MDR Clinical isolate
  Activity (MIC): + (MIC threshold for positive activity (+) is ≤16 μg/mL)
P. aeruginosa; strain NPAE1313, MDR Clinical isolate
  Activity (MIC): − (for inactive (−) is >16 μg/mL)
P. aeruginosa; strain NPAE1316, MDR Clinical isolate
  Activity (MIC): + (MIC threshold for positive activity (+) is ≤16 μg/mL)
P. aeruginosa; strain NPAE1323, MDR Clinical isolate
  Activity (MIC): − (for inactive (−) is >16 μg/mL)
E. cloacae
  Activity (MIC): + (MIC threshold for positive activity (+) is ≤16 μg/mL)
P. mirabilis
  Activity (MIC): + (MIC threshold for positive activity (+) is ≤16 μg/mL)
